The values that follow come from patent publication US8486977B2, “1,2,3-triazole derivatives for use as stearoyl-CoA desaturase inhibitors” (GlaxoSmithKline LLC, priority 2007, dated 2013).

For one series, the target named is T1, SCD (Rattus norvegicus, UniProt P07308).
T1 construct: SCD-containing rat microsomes (2 μg protein); from tissue
T1 sequence (P07308 1-358): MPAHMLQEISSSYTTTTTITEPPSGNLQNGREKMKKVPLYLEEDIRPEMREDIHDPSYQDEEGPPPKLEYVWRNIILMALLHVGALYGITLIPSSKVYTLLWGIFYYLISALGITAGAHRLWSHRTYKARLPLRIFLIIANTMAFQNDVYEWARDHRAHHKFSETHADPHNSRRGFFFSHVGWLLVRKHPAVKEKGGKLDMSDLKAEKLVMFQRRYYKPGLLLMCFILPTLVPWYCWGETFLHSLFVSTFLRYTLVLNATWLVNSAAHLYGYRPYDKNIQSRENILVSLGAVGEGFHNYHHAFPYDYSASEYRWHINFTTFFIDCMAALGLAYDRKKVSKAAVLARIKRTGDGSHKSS
The series can be described thus: in vitro assay for SCD activity based on production of [3H]H2O. The format is biochemical. The following applies: SCD-containing rat microsomes (2 μg protein), [9,10-3H] stearoyl Coenzyme A 1 μM, 6 min incubation. Here is the method:
The compounds of the present invention may be analysed in vitro for SCD activity using an assay based on the production of [^3H]H2O, which is released during the enzyme-catalyzed generation of the monounsaturated fatty acyl CoA product. The assay is performed in a 96-well filtration plates. The titrated substrate used in the assay is the [9,10-^3H] stearoyl Coenzyme A. After incubation for 6 minutes of SCD-containing rat microsomes (2 μg protein) and substrate (1 μM), the labelled fatty acid acyl-CoA species and microsomes are absorbed with charcoal and separated from [^3H]H2O by centrifugation. The formation of [^3H]H2O is used as a measure of SCD activity. Compounds at concentrations starting at 10 μM to 0.1 nM or vehicle (DMSO) are preincubated for 5 minutes with the microsomes before addition of the substrate. The concentration-responses are fitted with sigmoidal curves to obtain IC50 values.

Regarding `COC(=O)c1ccc(NC(=O)c2nnn(Cc3ccccc3)c2C)cc1C(=O)OC` [Dimethyl 4-({[5-methyl-1-(phenylmethyl)-lH-1,2,3-triazol-4-yl]carbonyl}amino)-1,2-benzenedicarboxylate], at SCD, the IC50 is more than 10 µM.

On SCD, `CNC(=O)c1cc(NC(=O)c2nnn(Cc3ccc(Cl)c(Cl)c3)c2C)cc(C(=O)NC)c1` [5-[({1-[(3,4-Dichlorophenyl)methyl]-5-methyl-1H-1,2,3-triazol-4-yl}carbonyl)amino]-N,N′-dimethyl-1,3-benzenedicarboxamide] gave a concentration for half-maximal inhibition (IC50) of more than 10 µM.

The molecule `CNC(=O)c1cccc(NC(=O)c2nnn(Cc3ccc(Cl)c(Cl)c3)c2C)c1C` [1-[(3,4-dichlorophenyl)methyl]-5-methyl-N-{2-methyl-3-[(methylamino)carbonyl]phenyl}-1H-1,2,3-triazole-4-carboxamide] displayed an IC50 at SCD of more than 10 µM.

In the case of `Cc1c(C(=O)Nc2cc(C(=O)O)cc(C(=O)O)c2)nnn1Cc1cccc(Cl)c1` [5-[({1-[(3-Chlorophenyl)methyl]-5-methyl-1H-1,2,3-triazol-4-yl}carbonyl)amino]-1,3-benzenedicarboxylic acid], the 50% inhibitory concentration (IC50) against SCD was more than 10 µM.

Molecule `COC(=O)c1cc(NC(=O)c2nnn(Cc3ccccc3)c2C)cc(C(=O)OC)c1` [Dimethyl 5-({[5-methyl-1-(phenylmethyl)-lH-1,2,3-triazol-4-yl]carbonyl}amino)-1,3-benzenedicarboxylate] gave an IC50 on SCD of more than 10 µM.

Take `COC(=O)c1cc(NC(=O)c2nnn(Cc3ccc(F)cc3)c2C)cc(C(=O)OC)c1` [Dimethyl 5-[({1-[(4-fluorophenyl)methyl]-5-methyl-1H-1,2,3-triazol-4-yl}carbonyl)amino]-1,3-benzenedicarboxylate]: the IC50 against SCD is more than 10 µM.

In turn, `COc1ccc(NC(=O)c2nnn(Cc3ccc(C(C)C)cc3)c2C)cc1OC` [N-[3,4-Bis(methyloxy)phenyl]-5-methyl-1-{[4-(1-methylethyl)phenyl]methyl}-1H-1,2,3-triazole-4-carboxamide] showed an IC50 against SCD of more than 10 µM.

Molecule `Cc1c(C(=O)Nc2ccc(OCCC(C)C)cc2)nnn1Cc1ccc(-c2ccccc2)cc1` [1-(4-Biphenylylmethyl)-5-methyl-N-{4-[(3-methylbutyl)oxy]phenyl}-1H-1,2,3-triazole-4-carboxamide] returned an IC50 on SCD of more than 10 µM.

`COC(=O)c1cc(NC(=O)c2nnn(Cc3ccc(Cl)c(Cl)c3)c2C)ccc1OC` [Methyl 5-[({1-[(3,4-dichlorophenyl)methyl]-5-methyl-1H-1,2,3-triazol-4-yl}carbonyl)amino]-2-(methyloxy)benzoate] yielded an IC50 against SCD of more than 10 µM.

For the molecule `COC(=O)c1cc(NC(=O)c2nnn(Cc3cccc(Cl)c3)c2C)cc(C(=O)OC)c1` [Dimethyl 5-[({1-[(3-chlorophenyl)methyl]-5-methyl-1H-1,2,3-triazol-4-yl}carbonyl)amino]-1,3-benzenedicarboxylate], the IC50 against SCD is more than 10 µM.

As for `CC(=O)NCc1cccc(NC(=O)c2nnn(Cc3ccc(Cl)c(Cl)c3)c2C)c1` [Example 43, N-{3-[(Acetylamino)methyl]phenyl}-1-[(3,4-dichlorophenyl)methyl]-5-methyl-1H-1,2,3-triazole-4-carboxamide], the melting point stood at 188.4 °C.

`COc1ccc(CCO)cc1NC(=O)c1nnn(Cc2ccc(Cl)c(Cl)c2)c1C` [Example 54, 1-[(3,4-Dichlorophenyl)methyl]-N-[5-(2-hydroxyethyl)-2-(methyloxy)phenyl]-5-methyl-1H-1,2,3-triazole-4-carboxamide]: the melting point stood at 138 °C.

`Cc1c(C(=O)Nc2ccc(-c3ncco3)cc2)nnn1Cc1ccc(Cl)c(Cl)c1` [Example 15, 1-[(3,4-Dichlorophenyl)methyl]-5-methyl-N-[4-(1,3-oxazol-2-yl)phenyl]-1H-1,2,3-triazole-4-carboxamide] had a melting point of 218 °C.

The molecule `Cc1c(C(=O)Nc2cc(C(=O)O)cc(C(=O)O)c2)nnn1Cc1ccccc1` [Example 65, 5-({[5-Methyl-1-(phenylmethyl)-1H-1,2,3-triazol-4-yl]carbonyl}amino)-1,3-benzenedicarboxylic acid] registered a melting point of 307.2 °C.

As for `COC(=O)c1cccc(NC(=O)c2nnn(Cc3ccc(Cl)c(Cl)c3)c2C)c1C` [Methyl 3-[({1-[(3,4-dichlorophenyl)methyl]-5-methyl-1H-1,2,3-triazol-4-yl}carbonyl)amino]-2-methylbenzoate], the IC50 at SCD is more than 10 µM.

As for `COc1ccc(C(=O)O)cc1NC(=O)c1nnn(Cc2ccc(Cl)c(Cl)c2)c1C` [Example 64, 3-[({1-[(3,4-Dichlorophenyl)methyl]-5-methyl-1H-1,2,3-triazol-4-yl}carbonyl)amino]-4-(methyloxy)benzoic acid], the melting point worked out at 243.9 °C.

As to `Cc1c(C(=O)Nc2cccc(C(=O)O)c2)nnn1Cc1ccc(Cl)c(Cl)c1` [Example 63, 3-[({1-[(3,4-Dichlorophenyl)methyl]-5-methyl-1H-1,2,3-triazol-4-yl}carbonyl)amino]benzoic acid], the melting point was found to be 267.6 °C.

In turn, `CNC(=O)c1ccc(OC)c(NC(=O)c2nnn(Cc3ccc(Cl)c(Cl)c3)c2C)c1` [Example 69, 1-[(3,4-Dichlorophenyl)methyl]-5-methyl-N-[5-[(methylamino)carbonyl]-2-(methyloxy)phenyl]-1H-1,2,3-triazole-4-carboxamide] returned a melting point of 222.2 °C.

For `COc1ccc(CO)cc1NC(=O)c1nnn(Cc2ccc(Cl)c(Cl)c2)c1C` [Example 51, 1-[(3,4-Dichlorophenyl)methyl]-N-[5-(hydroxymethyl)-2-(methyloxy)phenyl]-5-methyl-1H-1,2,3-triazole-4-carboxamide], the melting point came to 198 °C.

`COC(=O)c1cc(NC(=O)c2nnn(Cc3ccc(Cl)c(Cl)c3)c2C)cc(C(=O)OC)c1` [Dimethyl 5-[({1-[(3,4-dichlorophenyl)methyl]-5-methyl-1H-1,2,3-triazol-4-yl}carbonyl)amino]-1,3-benzenedicarboxylate]: at SCD, the IC50 is more than 10 µM.

Take `COC(=O)c1ccc(NC(=O)c2nnn(Cc3ccc(Cl)c(Cl)c3)c2C)cc1C(=O)OC` [Example 46, Dimethyl 4-[({1-[(3,4-dichlorophenyl)methyl]-5-methyl-1H-1,2,3-triazol-4-yl}carbonyl)amino]-1,2-benzenedicarboxylate]: the melting point came to 148 °C.

As to `COC(=O)c1ccc(OC)c(NC(=O)c2nnn(Cc3cc(Cl)cc(Cl)c3)c2C)c1` [Example 41, Methyl 3-[({1-[(3,5-dichlorophenyl)methyl]-5-methyl-1H-1,2,3-triazol-4-yl}carbonyl)amino]-4-(methyloxy)benzoate], the melting point stood at 213 °C.

Consider `Cc1c(C(=O)Nc2ccc(CO)c(CO)c2)nnn1Cc1cccc(F)c1` [Example 85, N-[3,4-bis(Hydroxymethyl)phenyl]-1-[(3-fluorophenyl)methyl]-5-methyl-1H-1,2,3-triazole-4-carboxamide], for which the melting point is 157.2 °C.

Consider `Cc1c(CO)cccc1NC(=O)c1nnn(Cc2ccccc2)c1C` [Example 39, N-[3-(Hydroxymethyl)-2-methylphenyl]-5-methyl-1-(phenylmethyl)-1H-1,2,3-triazole-4-carboxamide], for which the melting point amounted to 157 °C.
